Source: the supplement of paper PMC10307832

Experiments:
Assay in all cases: relative viability (nuclei count vs DMSO), 5 days (fraction); higher = more cells survive
Decitabine + AZD7762 = compound: Nc1ncn([C@H]2C[C@H](O)[C@@H](CO)O2)c(=O)n1 [Decitabine] + NC(=O)Nc1cc(-c2cccc(F)c2)sc1C(=O)N[C@H]1CCCNC1 [AZD7762] (partner 0.2 µM)
Procedure, shortened: (§1)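 Relative viability was taken as the ratio of nuclei in treated wells to nuclei in vehicle wells. Lung cancer cell lines in 1536-well plates received compounds by pin tool one day after seeding, either one drug alone or a fixed anchor-drug dose plus five library-drug doses (not always all listed) in √10 steps. Nuclei were counted on 4× images after 5 days of treatment, and values are medians of duplicate plates.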

Decitabine + Luminespib = compound: Nc1ncn([C@H]2C[C@H](O)[C@@H](CO)O2)c(=O)n1 [Decitabine] + CCNC(=O)c1noc(-c2cc(C(C)C)c(O)cc2O)c1-c1ccc(CN2CCOCC2)cc1 [Luminespib] (partner 0.01 µM)
Procedure, shortened: as §1

Decitabine + Bortezomib = compound: Nc1ncn([C@H]2C[C@H](O)[C@@H](CO)O2)c(=O)n1 [Decitabine] + CC(C)C[C@H](NC(=O)[C@H](Cc1ccccc1)NC(=O)c1cnccn1)B(O)O [Bortezomib] (partner 0.002 µM)
Procedure, shortened: as §1

Decitabine + Vorinostat = compound: Nc1ncn([C@H]2C[C@H](O)[C@@H](CO)O2)c(=O)n1 [Decitabine] + O=C(CCCCCCC(=O)Nc1ccccc1)NO [Vorinostat] (partner 1 µM)
Procedure, shortened: as §1

Cell Line	relative viability (Decitabine + AZD7762; first compound 0.04 µM)	relative viability (Decitabine + AZD7762; first compound 0.1265 µM)	relative viability (Decitabine + AZD7762; first compound 0.4 µM)	relative viability (Decitabine + AZD7762; first compound 1.265 µM)	relative viability (Decitabine + AZD7762; first compound 4 µM)	relative viability (Decitabine + Luminespib; first compound 0.04 µM)	relative viability (Decitabine + Luminespib; first compound 0.1265 µM)	relative viability (Decitabine + Luminespib; first compound 0.4 µM)	relative viability (Decitabine + Luminespib; first compound 1.265 µM)	relative viability (Decitabine + Luminespib; first compound 4 µM)	relative viability (Decitabine + Bortezomib; first compound 0.04 µM)	relative viability (Decitabine + Bortezomib; first compound 0.1265 µM)	relative viability (Decitabine + Bortezomib; first compound 0.4 µM)	relative viability (Decitabine + Bortezomib; first compound 1.265 µM)	relative viability (Decitabine + Bortezomib; first compound 4 µM)	relative viability (Decitabine + Vorinostat; first compound 0.04 µM)	relative viability (Decitabine + Vorinostat; first compound 0.1265 µM)	relative viability (Decitabine + Vorinostat; first compound 0.4 µM)	relative viability (Decitabine + Vorinostat; first compound 1.265 µM)	relative viability (Decitabine + Vorinostat; first compound 4 µM)
PC-14	0.194	0.281	0.124	0.159	0.116	0.145	0.227	0.173	0.168	0.131	0.35	0.507	0.369	0.221	0.168	0.0877	0.265	0.125	0.0989	0.0956
NCI-H322M	0.546	0.619	0.478	0.445	0.501	0.77	0.835	0.669	0.441	0.489	1.18	1.06	0.716	0.699	0.479	0.715	0.792	0.816	0.61	0.664
NCI-H1666	0.826	0.872	0.696	0.787	0.763	0.927	0.964	0.815	0.674	0.726	0.723	0.726	0.545	0.625	0.569	0.943	1.05	0.922	0.894	0.836
A-427	0.464	0.512	0.425	0.278	0.285	0.65	0.466	0.303	0.262	0.227	0.769	0.571	0.247	0.271	0.242	0.789	0.732	0.526	0.411	0.396
NCI-H1651	0.43	0.446	0.336	0.341	0.355	0.942	0.844	0.828	0.69	0.658	0.96	0.936	0.824	0.682	0.76	0.478	0.456	0.483	0.296	0.407
201T	0.463	0.514	0.38	–	0.353	0.984	0.987	1.07	–	0.75	1.11	1.09	1.15	1	1.03	0.939	1.01	0.952	–	0.884
NCI-H460	0.576	0.593	0.361	0.134	0.105	0.0345	0.0356	0.0279	0.034	0.0328	0.909	0.991	0.811	0.35	0.272	0.669	0.64	0.293	0.214	0.0759
NCI-H596	1.07	1.14	0.699	0.913	0.881	0.9	1.01	–	0.696	0.739	1.02	0.873	0.845	0.847	0.855	0.613	0.618	0.553	0.51	0.507
HARA	0.353	0.464	0.165	0.203	0.315	0.802	0.544	0.34	0.144	0.158	0.819	0.7	0.511	0.431	0.308	0.507	0.377	0.345	0.213	0.214
NCI-H2126	0.874	0.938	0.577	0.713	0.591	0.811	0.723	0.547	0.492	0.485	0.984	0.975	0.648	0.655	0.591	0.675	0.678	0.477	0.488	0.386
HCC-827	0.113	0.169	0.188	0.173	0.193	0.239	0.31	0.246	0.301	0.316	0.748	0.567	0.399	0.36	0.372	0.143	0.32	0.303	0.243	0.287
ABC-1	0.668	0.814	0.712	0.701	0.84	–	0.807	0.521	0.345	0.331	0.286	0.239	0.315	0.23	0.228	–	0.842	0.964	0.888	0.795
NCI-H650	0.775	0.618	0.427	0.388	0.346	0.627	0.652	0.489	0.314	0.315	0.509	0.534	0.227	0.294	0.223	0.338	0.301	0.204	0.219	0.16
BEN	0.691	0.791	0.55	0.586	0.664	0.332	0.373	0.243	0.282	0.242	0.779	0.779	0.539	0.427	0.481	0.664	0.623	0.451	0.488	0.435
ChaGo-K-1	0.725	0.679	0.469	0.442	0.408	0.584	0.487	0.33	0.277	0.39	0.768	0.756	0.579	0.585	0.566	0.771	0.684	0.402	0.39	0.374
NCI-H23	0.196	0.271	0.154	0.131	0.162	0.215	0.213	0.202	0.199	0.203	0.571	0.493	0.307	0.216	0.233	0.281	0.301	0.256	0.176	0.179
NCI-H1975	0.451	0.451	0.441	0.465	0.403	0.198	0.161	0.162	0.174	0.142	0.227	0.268	0.178	0.168	0.169	0.508	0.412	0.375	0.281	0.291
